Target: hMRGX2 (CHO-K1 cells overexpressing MRGX2) (Homo sapiens (Human), UniProt Q96LB1)
Experiment: In vitro inhibition (EC50) of intracellular calcium flux, FLIPR Tetra, substance P stimulation
Assay type: cell-based
Conditions: stimulated with MRGX2 ligand substance P, FLIPR Calcium 5, read-out: hMRGX2 Cellular Potency (pEC50) (converted)
Summary of the method: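 CHO-K1 cells overexpressing human MRGX2, loaded with Calcium 5 dye for 30 min at 37 °C, then given compound (11-point, top 10 μM).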

hMRGX2 (CHO-K1 cells overexpressing MRGX2), sequence (Q96LB1 whole entry): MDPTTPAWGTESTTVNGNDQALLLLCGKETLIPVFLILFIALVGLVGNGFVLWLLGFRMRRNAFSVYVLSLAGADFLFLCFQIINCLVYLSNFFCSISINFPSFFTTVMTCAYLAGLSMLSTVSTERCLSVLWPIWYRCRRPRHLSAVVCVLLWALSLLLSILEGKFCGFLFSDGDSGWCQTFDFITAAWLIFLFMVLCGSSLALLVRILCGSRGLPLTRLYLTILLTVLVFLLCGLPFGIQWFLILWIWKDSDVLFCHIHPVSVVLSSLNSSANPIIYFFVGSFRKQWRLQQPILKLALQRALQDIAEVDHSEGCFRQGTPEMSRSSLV

Compound | EC50 [nM]
N#Cc1cnc(CNC2=NS(=O)(=O)c3cccc(-c4ccnc(F)c4Cl)c3N2)s1 [Example 55, 2-(((5-(3-chloro-2-fluoropyridin-4-yl)-1,1-dioxido-4H-benzo[e][1,2,4]thiadiazin-3-yl)amino)methyl)thiazole-5-carbonitrile] | 136
CO[C@@H](C)CNC1=NS(=O)(=O)c2cccc(-c3cc(F)cc(F)c3F)c2N1 (single isomer, unassigned) [Example 128] | 24.9
O=S1(=O)N=C(NCc2nccs2)Nc2c(-c3cccc(F)c3Cl)cc(F)cc21 [Example 5, 5-(2-chloro-3-fluorophenyl)-7-fluoro-3-((thiazol-2-ylmethyl)amino)-4H-benzo[e][1,2,4]thiadiazine 1,1-dioxide] | 20
CCc1ccccc1-c1cccc2c1NC(NC)=NS2(=O)=O [Example 91, 5-(2-ethylphenyl)-3-(methylamino)-4H-benzo[e][1,2,4]thiadiazine 1,1-dioxide] | 81.8
CC(C)c1ccc(NC2=NS(=O)(=O)c3cccc(-c4cnn(C5COC5)c4)c3N2)cc1 [Example 101, 3-((4-isopropylphenyl)amino)-5-(1-(oxetan-3-yl)-1H-pyrazol-4-yl)-4H-benzo[e][1,2,4]thiadiazine 1,1-dioxide] | 45.7
CO[C@H](C)CNC1=NS(=O)(=O)c2cccc(-c3cc(F)cc(F)c3F)c2N1 (single isomer, unassigned) [Example 129] | 2690
Cc1cccc(CNC2=NS(=O)(=O)c3cccc(-c4cc(F)cc(F)c4)c3N2)n1 [Example 79, 5-(3,5-difluorophenyl)-3-(((6-methylpyridin-2-yl)methyl)amino)-4H-benzo[e][1,2,4]thiadiazine 1,1-dioxide] | 368
N#Cc1ccccc1-c1cccc2c1NC(NCC1CCC1)=NS2(=O)=O [Example 146, 2-(3-((cyclobutylmethyl)amino)-1,1-dioxido-4H-benzo[e][1,2,4]thiadiazin-5-yl)benzonitrile] | 162
O=S1(=O)N=C(NCC2CC2)Nc2c(-c3cc(F)ccc3F)cccc21 [Example 140, 3-((cyclopropylmethyl)amino)-5-(2,5-difluorophenyl)-4H-benzo[e][1,2,4]thiadiazine 1,1-dioxide] | 692
CO[C@@H](C)CNC1=NS(=O)(=O)c2cccc(-c3cc(F)cc(F)c3)c2N1 (single isomer, unassigned) [Example 86] | > 50100
COc1cccc(CNC2=NS(=O)(=O)c3cccc(-c4cccc(F)c4F)c3N2)n1 [Example 19, 5-(2,3-difluorophenyl)-3-(((6-methoxypyridin-2-yl)methyl)amino)-4H-benzo[e][1,2,4]thiadiazine 1,1-dioxide] | 23.4
CNC1=NS(=O)(=O)c2cccc(-c3cccc(F)c3C3CC3)c2N1 [Example 157, 5-(2-cyclopropyl-3-fluorophenyl)-3-(methylamino)-4H-benzo[e][1,2,4]thiadiazine 1,1-dioxide] | 56.2
O=S1(=O)N=C(NCc2ccccc2)Nc2c(-c3cc(F)cc(F)c3)cccc21 [Example 88, 3-(benzylamino)-5-(3,5-difluorophenyl)-4H-benzo[e][1,2,4]thiadiazine 1,1-dioxide] | 75.2
CC(C)c1ccc(NC2=NS(=O)(=O)c3cccc(-c4ccn(C)n4)c3N2)cc1 [Example 108, 3-((4-isopropylphenyl)amino)-5-(1-methyl-1H-pyrazol-3-yl)-4H-benzo[e][1,2,4]thiadiazine 1,1-dioxide] | 592

More lines, now with the values ahead:

EC50 [nM] | Compound
77.1 | CCNC1=NS(=O)(=O)c2cccc(-c3ccccc3Cl)c2N1 [Example 42, 5-(2-chlorophenyl)-3-(ethylamino)-4H-benzo[e][1,2,4]thiadiazine 1,1-dioxide]
19 | O=S1(=O)N=C(NCc2ncccc2F)Nc2c(-c3ccnc(F)c3Cl)cccc21 [Example 51, 5-(3-chloro-2-fluoropyridin-4-yl)-3-(((3-fluoropyridin-2-yl)methyl)amino)-4H-benzo[e][1,2,4]thiadiazine 1,1-dioxide]
562 | COCCCNC1=NS(=O)(=O)c2cccc(-c3cccc(F)c3Cl)c2N1 [Example 151, 5-(2-chloro-3-fluorophenyl)-3-((3-methoxypropyl)amino)-4H-benzo[e][1,2,4]thiadiazine 1,1-dioxide]
281 | COCCNC1=NS(=O)(=O)c2cccc(-c3cccc(C(F)(F)F)c3Cl)c2N1 [Example 132, 5-(2-chloro-3-(trifluoromethyl)phenyl)-3-((2-methoxyethyl)amino)-4H-benzo[e][1,2,4]thiadiazine 1,1-dioxide]
53.6 | O=S1(=O)N=C(NC2CC2)Nc2c(-c3cccc(F)c3Cl)cccc21 [Example 159, 5-(2-chloro-3-fluorophenyl)-3-(cyclopropylamino)-4H-benzo[e][1,2,4]thiadiazine 1,1-dioxide]
131 | CCNC1=NS(=O)(=O)c2cccc(-c3ccnc(F)c3Cl)c2N1 [Example 52, 5-(3-chloro-2-fluoropyridin-4-yl)-3-(ethylamino)-4H-benzo[e][1,2,4]thiadiazine 1,1-dioxide]
173 | CN1CCOC(CNC2=NS(=O)(=O)c3cccc(-c4cccc(F)c4Cl)c3N2)C1 (centres unmarked) [Example 57, 5-(2-chloro-3-fluorophenyl)-3-(((4-methylmorpholin-2-yl)methyl)amino)-4H-benzo[e][1,2,4]thiadiazine 1,1-dioxide]
28.6 | Cc1coc(CNC2=NS(=O)(=O)c3cccc(-c4cccc(F)c4Cl)c3N2)n1 [Example 30, 5-(2-chloro-3-fluorophenyl)-3-(((4-methyloxazol-2-yl)methyl)amino)-4H-benzo[e][1,2,4]thiadiazine 1,1-dioxide]
40.6 | COCCNC1=NS(=O)(=O)c2cc(F)cc(-c3ccccc3Cl)c2N1 [Example 14, 5-(2-chlorophenyl)-7-fluoro-3-((2-methoxyethyl)amino)-4H-benzo[e][1,2,4]thiadiazine 1,1-dioxide]
366 | COCCNC1=NS(=O)(=O)c2cccc(-c3cc(F)ccc3F)c2N1 [Example 141, 5-(2,5-difluorophenyl)-3-((2-methoxyethyl)amino)-4H-benzo[e][1,2,4]thiadiazine 1,1-dioxide]
575 | O=S1(=O)N=C(NCC(F)F)Nc2c(-c3ccnc(F)c3Cl)cccc21 [Example 53, 5-(3-chloro-2-fluoropyridin-4-yl)-3-((2,2-difluoroethyl)amino)-4H-benzo[e][1,2,4]thiadiazine 1,1-dioxide]
181 | CNC1=NS(=O)(=O)c2cccc(-c3cc(F)ccc3Cl)c2N1 [Example 93, 5-(2-chloro-5-fluorophenyl)-3-(methylamino)-4H-benzo[e][1,2,4]thiadiazine 1,1-dioxide]
296 | COCCNC1=NS(=O)(=O)c2cccc(-c3ccc(F)cc3Cl)c2N1 [Example 133, 5-(2-chloro-4-fluorophenyl)-3-((2-methoxyethyl)amino)-4H-benzo[e][1,2,4]thiadiazine 1,1-dioxide]
305 | O=S1(=O)N=C(NCCc2ccncc2)Nc2c(-c3cccc(F)c3Cl)cccc21 [Example 68, 5-(2-chloro-3-fluorophenyl)-3-((2-(pyridin-4-yl)ethyl)amino)-4H-benzo[e][1,2,4]thiadiazine 1,1-dioxide]
127 | O=S1(=O)N=C(NCCF)Nc2c(-c3cccc(F)c3Cl)cc(F)cc21 [Example 11, 5-(2-chloro-3-fluorophenyl)-7-fluoro-3-((2-fluoroethyl)amino)-4H-benzo[e][1,2,4]thiadiazine 1,1-dioxide]

Source: patent US12247015B2, “3-amino-4H-benzo[e][1,2,4]thiadiazine 1,1-dioxide derivatives as inhibitors of MRGX2” (Solent Therapeutics, LLC, priority 2019, dated 2025)
